# Experimental data as given in patent US20250144067A1, “PERSONALIZED STARVATION THERAPY FOR CANCER” (Faeth Therapeutics, Inc., priority 2021, published 2025).
# Where a name gives a salt, the structure may show the parent alone. Read-outs that look alike come from different tables or passages of the source.
# Tests used:
# [1] = tested on: NCI-H292 lung cancer cells; test: FDA drug screening, complete media vs cholesterol-free media without statin (TABLE 1); assay type: cell-based, human
# [2] = tested on: NCI-H292 lung cancer cells; test: FDA drug screening, complete media vs cholesterol-free media with simvastatin (TABLE 2); assay type: cell-based, human
# [3] = Complete minus Cholesterol-free, >0 enhanced anti-cancer activity, about 0 neutral, <0 antagonist
# [4] = NCI-H292 cells, cholesterol-free media without statin, FDA drug library screen
# [5] = NCI-H292 cells, complete media, FDA drug library screen
# [6] = NCI-H292 cells, FDA drug library screen, cholesterol-free media with simvastatin 0.04 μM
# [7] = NCI-H292 cells, FDA drug library screen, complete media
# [8] = complete media minus cholesterol-free media + simvastatin, >0 enhanced anti-cancer activity, about 0 neutral, <0 antagonist
# [9] = Complete minus Cholesterol-free, greater than 0 enhanced anti-cancer activity, about 0 neutral, below 0 antagonist
# [10] = NCI-H292 cells, FDA drug library screen, cholesterol-free media without statin
# [11] = NCI-H292 cells, cholesterol-free media with simvastatin 0.04 μM, cell growth value in FDA drug screen
# [12] = NCI-H292 cells, complete media, cell growth value in FDA drug screen
# [13] = NCI-H292 cells, cholesterol-free media without statin
# [14] = complete vs cholesterol-free media, greater than 0 enhanced anti-cancer activity, about 0 neutral, below 0 antagonists
# [15] = complete vs cholesterol-free media, >0 enhanced anti-cancer activity, about 0 neutral, <0 antagonist
# [16] = complete media vs cholesterol-free media + simvastatin (0.04 μM), >0 enhanced anti-cancer activity, about 0 neutral, <0 antagonist
# [17] = NCI-H292 cells, FDA library drug in cholesterol-free media with simvastatin 0.04 μM
# [18] = NCI-H292 cells, FDA library drug in complete media
# [19] = NCI-H292 cells, cholesterol-free media with simvastatin 0.04 μM, FDA drug library screen (TABLE 2)
# [20] = NCI-H292 cells, complete media, FDA drug library screen (TABLE 2)
# [21] = complete media minus cholesterol-free media + simvastatin (0.04 μM), >0 enhanced anti-cancer activity, about 0 neutral, <0 antagonist
# [22] = Complete minus Cholesterol-free, greater than 0 enhanced anti-cancer activity, about 0 neutral, below 0 antagonists
# [23] = NCI-H292 cells in cholesterol-free media without statin
# [24] = NCI-H292 cells in complete media
compound,measurement,setting,value
Cc1cn([C@H]2O[C@@H](CO)[C@H](O)[C@H]2F)c(=O)[nH]c1=O [Clevudine],Difference,[1]; [3],−0.06
same,Cholesterol-free,[1]; [4],0.975
same,Complete,[1]; [5],0.9127
same,Cholesterol-free media + simvastatin (0.04 μM),[2]; [6],0.7152
same,Complete Media,[2]; [7],0.881
same,Difference,[2]; [8],0.17
C[N+]12CCC(CC1)C(OC(=O)C(O)(c1ccccc1)c1ccccc1)C2.[Br-] (centres unmarked) [Clidinium (bromide)],Cholesterol-free,[1],1.17
same,Complete,[1],1.604
same,Difference,[1],0.43
same,Cholesterol-free media + simvastatin (0.04 μM),[2],1.456
same,Complete Media,[2],1.482
same,Difference,[2],0.03
CCC[C@@H]1C[C@@H](C(=O)N[C@@H]([C@H]2O[C@H](SC)[C@H](O)[C@@H](O)[C@H]2O)[C@H](C)Cl)N(C)C1 [Clindamycin (hydrochloride)],Difference,[1]; [9],−0.08
same,Cholesterol-free,[1]; [10],1.009
same,Complete,[1]; [7],0.9276
same,Cholesterol-free media + simvastatin (0.04 μM),[2]; [11],1.243
same,Complete Media,[2]; [12],1.299
same,Difference,[2]; [8],0.06
CCC[C@@H]1C[C@@H](C(=O)N[C@@H]([C@H]2O[C@H](SC)[C@H](OP(=O)(O)O)[C@@H](O)[C@H]2O)[C@H](C)Cl)N(C)C1 [Clindamycin (phosphate)],Cholesterol-free,[1]; [13],1.342
same,Complete,"[1]; NCI-H292 cells, complete media",0.8969
same,Difference,[1]; [14],−0.44
same,Cholesterol-free media + simvastatin (0.04 μM),[2]; [11],1.017
same,Complete Media,[2]; [12],1.129
same,Difference,[2]; [8],0.11
CCCCCCCCCCCCCCCC(=O)O[C@@H]1[C@@H](O)[C@@H](O)[C@@H]([C@H](NC(=O)[C@@H]2C[C@@H](CCC)CN2C)[C@H](C)Cl)O[C@@H]1SC.Cl [Clindamycin palmitate (hydrochloride)],Cholesterol-free,[1]; [4],0.6777
same,Complete,[1]; [5],1.478
same,Difference,[1]; [15],0.80
same,Cholesterol-free media + simvastatin (0.04 μM),[2]; [6],1.093
same,Complete Media,[2]; [7],0.9482
same,Difference,[2]; [16],−0.14
CCC(C)(Oc1ccc(C2(c3ccc(OC(C)(CC)C(=O)O)cc3)CCCCC2)cc1)C(=O)O (centres unmarked) [Clinofibrate],Cholesterol-free,[1]; [13],1.347
same,Complete,"[1]; NCI-H292 cells, complete media",1.007
same,Difference,[1]; [14],−0.34
same,Cholesterol-free media + simvastatin (0.04 μM),"[2]; NCI-H292 cells, drug in cholesterol-free media with simvastatin 0.04 μM",1.342
same,Complete Media,"[2]; NCI-H292 cells, drug in complete media",1.081
same,Difference,[2]; [16],−0.26
Oc1c(I)cc(Cl)c2cccnc12 [Clioquinol],Cholesterol-free,[1]; [4],0.6089
same,Difference,[1]; [15],0.57
same,Cholesterol-free media + simvastatin (0.04 μM),[2]; [6],1.168
same,Complete Media,[2]; [7],1.009
same,Difference,[2]; [16],−0.16
CCC(=O)O[C@]1(C(=O)CCl)[C@@H](C)C[C@H]2[C@@H]3CCC4=CC(=O)C=C[C@]4(C)[C@@]3(F)[C@@H](O)C[C@@]21C [Clobetasol propionate],Difference,[1]; [3],−0.20
same,Cholesterol-free,[1]; [13],1.481
same,Complete,"[1]; NCI-H292 cells, complete media",1.28
same,Cholesterol-free media + simvastatin (0.04 μM),[2]; [11],0.7256
same,Complete Media,[2]; [12],0.7474
same,Difference,[2]; [8],0.02
CCCC(=O)O[C@]1(C(=O)CCl)[C@H](C)C[C@@H]2[C@@H]3CCC4=CC(=O)C=C[C@]4(C)[C@]3(F)C(=O)C[C@@]21C [Clobetasone butyrate],Difference,"[1]; Complete minus Cholesterol-free, […]",−0.18
same,Cholesterol-free,[1]; [10],0.6832
same,Complete,[1]; [7],0.5004
same,Cholesterol-free media + simvastatin (0.04 μM),"[2]; NCI-H292 cells, cholesterol-free media with simvastatin 0.04 μM, […]",0.5437
same,Complete Media,"[2]; NCI-H292 cells, complete media, […]",0.5699
same,Difference,"[2]; complete media minus cholesterol-free media + simvastatin, […]",0.03
O.O.O.O.O=P([O-])(O)C(Cl)(Cl)P(=O)([O-])O.[Na+].[Na+] [Clodronate (disodium tetrahydrate)],Difference,[1]; [3],−0.05
same,Cholesterol-free,[1]; [4],1.08
same,Complete,[1]; [5],1.034
same,Cholesterol-free media + simvastatin (0.04 μM),[2]; [11],0.8439
same,Complete Media,[2]; [12],0.9326
same,Difference,[2]; [8],0.09
O=P(O)(O)C(Cl)(Cl)P(=O)(O)O [Clodronic acid (disodium salt)],Difference,[1]; [3],0.00
same,Cholesterol-free,[1]; [4],0.9505
same,Complete,[1]; [5],0.955
same,Cholesterol-free media + simvastatin (0.04 μM),[2]; [17],1.883
same,Complete Media,[2]; [18],1.075
same,Difference,[2]; [16],−0.81
Nc1nc(Cl)nc2c1ncn2[C@@H]1O[C@H](CO)[C@@H](O)[C@@H]1F [Clofarabine],Cholesterol-free,[1]; [13],0.802
same,Complete,"[1]; NCI-H292 cells, complete media",0.4474
same,Difference,[1]; [14],−0.35
same,Cholesterol-free media + simvastatin (0.04 μM),[2]; [19],0.03305
same,Complete Media,[2]; [20],0.03609
same,Difference,[2]; [21],0.00
CC(C)/N=c1\cc2n(-c3ccc(Cl)cc3)c3ccccc3nc-2cc1Nc1ccc(Cl)cc1 [Clofazimine],Cholesterol-free,[1]; [13],0.8398
same,Complete,"[1]; NCI-H292 cells, complete media",0.4066
same,Difference,[1]; [14],−0.43
same,Cholesterol-free media + simvastatin (0.04 μM),[2]; [19],0.9946
same,Complete Media,[2]; [20],0.9365
same,Difference,[2]; [21],−0.06
CCOC(=O)C(C)(C)Oc1ccc(Cl)cc1 [Clofibrate],Difference,[1]; [9],−0.12
same,Cholesterol-free,[1]; [10],1.138
same,Complete,[1]; [7],1.018
same,Cholesterol-free media + simvastatin (0.04 μM),[2]; [6],1.786
same,Complete Media,[2]; [7],1.654
same,Difference,[2]; [16],−0.13
CC(C)(Oc1ccc(Cl)cc1)C(=O)O [Clofibric acid],Difference,[1]; [9],−0.18
same,Cholesterol-free,[1]; [10],0.9932
same,Complete,[1]; [7],0.8121
same,Cholesterol-free media + simvastatin (0.04 μM),[2]; [11],1.015
same,Complete Media,[2]; [12],1.071
same,Difference,[2]; [8],0.06
CC(C)(C)CC(C)(C)c1ccc(O)c(Cc2ccc(Cl)cc2Cl)c1 [Clofoctol],Difference,[1]; [22],−0.85
same,Cholesterol-free,[1]; [23],1.815
same,Complete,[1]; [24],0.9672
same,Cholesterol-free media + simvastatin (0.04 μM),[2]; [6],1.057
same,Complete Media,[2]; [7],1.232
same,Difference,[2]; [8],0.17
CN(C)CCCN1c2ccccc2CCc2ccc(Cl)cc21 [Clomipramine (hydrochloride)],Difference,[1]; [22],−0.54
same,Cholesterol-free,[1]; [23],1.47
same,Complete,[1]; [24],0.9281
same,Cholesterol-free media + simvastatin (0.04 μM),[2]; [11],0.9105
same,Complete Media,[2]; [12],1.028
same,Difference,[2]; [8],0.12
Clc1cccc(Cl)c1N=C1NCCN1 [Clonidine (hydrochloride)],Difference,[1]; [9],−0.12
same,Cholesterol-free,[1]; [10],0.9351
same,Complete,[1]; [7],0.8162
same,Cholesterol-free media + simvastatin (0.04 μM),[2]; [6],1.083
same,Complete Media,[2]; [7],0.9532
same,Difference,[2]; [16],−0.13
Clc1cccc(Cl)c1N=C1NCCN1 [Clonidine],Difference,[1]; [22],−0.63
same,Cholesterol-free,[1]; [23],1.46
same,Complete,[1]; [24],0.8249
same,Cholesterol-free media + simvastatin (0.04 μM),[2]; [17],1.26
same,Complete Media,[2]; [18],0.9157
same,Difference,[2]; [16],−0.34
Clc1ccc(C(OCCN2CCCCC2)c2ccccc2)cc1 (centres unmarked) [Cloperastine (hydrochloride)],Difference,[1]; [3],−0.28
same,Cholesterol-free,[1]; [13],1.087
same,Complete,"[1]; NCI-H292 cells, complete media",0.8022
same,Cholesterol-free media + simvastatin (0.04 μM),[2]; [6],1.648
same,Complete Media,[2]; [7],1.547
same,Difference,[2]; [16],−0.10
COC(=O)[C@H](c1ccccc1Cl)N1CCc2sccc2C1 [Clopidogrel],Difference,[1]; [3],−0.02
same,Cholesterol-free,[1]; [4],0.9805
same,Complete,[1]; [5],0.958
same,Cholesterol-free media + simvastatin (0.04 μM),[2]; [19],1.038
same,Complete Media,[2]; [20],0.969
same,Difference,[2]; [21],−0.07
CC(C)NCC(O)c1ccccc1Cl (centres unmarked) [Clorprenaline hydrochloride],Cholesterol-free,[1]; [4],0.6182
same,Complete,[1]; [5],1.062
same,Difference,[1]; [15],0.44
same,Cholesterol-free media + simvastatin (0.04 μM),[2]; [6],0.6832
same,Complete Media,[2]; [7],0.8199
same,Difference,[2]; [8],0.14
Clc1ccccc1C(c1ccccc1)(c1ccccc1)n1ccnc1 [Clotrimazole],Difference,[1]; [22],−0.77
same,Cholesterol-free,[1]; [23],1.485
same,Complete,[1]; [24],0.7188
same,Cholesterol-free media + simvastatin (0.04 μM),[2]; [6],0.4166
same,Complete Media,[2]; [7],0.8582
same,Difference,[2]; [8],0.44
Cc1onc(-c2ccccc2Cl)c1C(=O)N[C@@H]1C(=O)N2[C@@H]1SC(C)(C)[C@@H]2C(=O)O [Cloxacillin (sodium monohydrate)],Difference,[1]; [3],−0.19
same,Cholesterol-free,[1]; [13],1.114
same,Complete,"[1]; NCI-H292 cells, complete media",0.9266
same,Cholesterol-free media + simvastatin (0.04 μM),[2]; [11],1.045
same,Complete Media,[2]; [12],1.18
same,Difference,[2]; [8],0.13
CN1CCN(C2=Nc3cc(Cl)ccc3Nc3ccccc32)CC1 [Clozapine],Difference,[1]; [3],−0.23
same,Cholesterol-free,[1]; [13],1.346
same,Complete,"[1]; NCI-H292 cells, complete media",1.114
same,Cholesterol-free media + simvastatin (0.04 μM),[2]; [6],0.8452
same,Complete Media,[2]; [7],1.094
same,Difference,[2]; [8],0.25
O=C(c1ccc(F)c(F)c1Nc1ccc(I)cc1F)N1CC(O)([C@@H]2CCCCN2)C1 [Cobimetinib],Difference,[1]; [3],−0.06
same,Cholesterol-free,[1]; [4],0.2958
same,Complete,[1]; [5],0.2361
same,Cholesterol-free media + simvastatin (0.04 μM),[2]; [19],0.5825
same,Complete Media,[2]; [20],0.5258
same,Difference,[2]; [21],−0.06
COc1cc2c(c(OC)c1OC)-c1ccc(OC)c(=O)cc1[C@@H](NC(C)=O)CC2 [Colchicine],Cholesterol-free,[1],0.1135
same,Complete,[1],0.07073
same,Difference,[1],−0.04
same,Cholesterol-free media + simvastatin (0.04 μM),[2],0.1971
same,Complete Media,[2],0.2205
same,Difference,[2],0.02
